Experimental data published in patent publication US8404648B2, “Polypeptides KXK and their use” (Sederma, priority 2006, dated 2013).
“And” between values parts separate entries of the source, which are not always exact repeats. Equal values may be shown once. Where a SMILES comes first, the peptide text is derived from it. Where no end group is shown, it is not given here. The star is where a group is joined. Ela = elaidoyl, CCCCCCCC/C=C/CCCCCCCC(=O)*; Palmitoyl = CCCCCCCCCCCCCCCC(=O)*

Experiments:
Assay type in all cases: cell-based
[1] = test system: Normal Human Dermal Fibroblasts (NHDF); test: Survival estimated on cell layer using a fluorescent probe; conditions: 3 days of incubation
Method: (§1) Principle of the study: Normal Human Dermal Fibroblasts (NHDF) were cultivated in an appropriate culture medium (i.e. complete DMEM with fetal calf serum). After cell anchorage, cell layers were rinsed with saline buffer and contact with molecules to be tested were performed in a complete DMEM without fetal calf serum. This medium contained ascorbate (sodium salt) and beta-aminopropionitrile, monofumarate. After 3 days of incubation, supernatants were collected and frozen. Survival was estimated on cell layer using a fluorescent probe. Collagen I was estimated using an original direct ELISA method, Fibronectin and Collagen IV were estimated using ELISA commercial kits.

[2] = test system: Collagen I synthesis, Normal Human Dermal Fibroblasts (NHDF); test: Collagen I synthesis by NHDF, direct ELISA on supernatants after 3 days; conditions: for Variation of Collagen I synthesis (mean, in % of negative control): NHDF, 3 days; for Collagen I synthesis, result in words: vs negative control
Method: (§2) Products: Pal-KTFK (SEQ ID NO: 7), Ela-KTAK (SEQ ID NO: 9) and Ela-KTFK (SEQ ID No: 8) were tested from 2 to 6 ppm, and Pal-KAvaK was tested from 1 to 4 ppm. Solvent=DMSO 0.08%. TGF-beta1 10^−6%, was the positive control for collagen I and fibronectin studies.
as §1
(§3) Results: Statistical analysis were performed on Collagen I data (n=5/assay) or fibronectin data (n=5/assay) or Collagen IV data (n=5/assay). Results obtained with molecules were compared to negative control. All data are in ng/10E6 cells. A Student t test for non paired values was used; significativity was obtained if p<0.05 or p<0.01.

[3] = test system: Fibronectin synthesis, Normal Human Dermal Fibroblasts (NHDF); test: Fibronectin synthesis by NHDF, commercial ELISA kit on supernatants after 3 days; conditions: for Variation of Fibronectin synthesis (mean, in % of negative control): NHDF, 3 days; for Fibronectin synthesis, result in words: vs negative control
Method: as §2, §1, §3

[4] = test system: Collagen IV synthesis, Normal Human Dermal Fibroblasts (NHDF); test: Collagen IV synthesis by NHDF, commercial ELISA kit on supernatants after 3 days; conditions: for Variation of Collagen IV synthesis (mean, in % of negative control): NHDF, 3 days
Method: as §2, §1, §3

[5] = positive control, TGF-beta1 10^−6% (10 ppb)

Row | Compound | Variation of Collagen I synthesis (mean, in % of negative control) ([2]; 2 ppm) | Variation of Collagen I synthesis (mean, in % of negative control) ([2]; 4 ppm) | Variation of Collagen I synthesis (mean, in % of negative control) ([2]; 6 ppm) | Collagen I synthesis, result in words ([2]; 6 ppm) | Variation of Fibronectin synthesis (mean, in % of negative control) ([3]; 2 ppm) | Variation of Fibronectin synthesis (mean, in % of negative control) ([3]; 4 ppm) | Fibronectin synthesis, result in words ([3]; 4 ppm) | Variation of Fibronectin synthesis (mean, in % of negative control) ([3]; 6 ppm) | Variation of Collagen IV synthesis (mean, in % of negative control) ([4]; 2 ppm) | Variation of Collagen IV synthesis (mean, in % of negative control) ([4]; 4 ppm) | other results
1 | CCCCCCCCCCCCCCCC(=O)N[C@@H](CCCCN)C(=O)N[C@H](C(=O)N[C@@H](Cc1ccccc1)C(=O)N[C@@H](CCCCN)C(=O)O)[C@@H](C)O [Pal-KTFK, Pal-Lys-Thr-Phe-Lys] (Palmitoyl-KTFK-OH) | – | – | – | – | – | – | – | – | – | – | maximal concentration accepted by the cells [1]: ~6 ppm
2 | Ela-Lys-Thr-Ala-Lys (Ela-KTAK) [N-elaidoyl tetrapeptide Lys-Thr-Ala-Lys] | 6% | 18% | 45% | increase | 16% | 32% | increase | 31% | – | – | –
3 | Ela-Lys-Thr-Phe-Lys (Ela-KTFK) [N-elaidoyl tetrapeptide Lys-Thr-Phe-Lys] | 6% | 19% | 49% | significant increase | 10% | 25% | – | 42% | 10% | 7% | Fibronectin synthesis, result in words ([3]; 6 ppm): significant increase; Variation of Collagen IV synthesis (mean, in % of negative control) ([4]; 6 ppm): 7%
4 | Pal-Lys-Ava-Lys [Pal-KAvaK] | 14% | 49% | – | – | 15% | 54% | increase | – | 9% | 23% | Variation of Collagen I synthesis (mean, in % of negative control) ([2]; 1 ppm): 1%; Collagen I synthesis, result in words ([2]; 4 ppm): increase; Variation of Fibronectin synthesis (mean, in % of negative control) ([3]; 1 ppm): 14%; Variation of Collagen IV synthesis (mean, in % of negative control) ([4]; 1 ppm): 8%; Collagen IV synthesis, result in words ([4]; 4 ppm, vs negative control): increase
5 | TGF-beta: TGF-beta1 10^−6%, the positive control for collagen I and fibronectin studies [reference compound] | – | – | – | – | – | – | – | – | – | – | Collagen I synthesis, result in words [2, 5]: significant increase; Variation of Fibronectin synthesis (mean, in % of negative control) ([3]; 10 ppb): 124% and 85% and 87%; Fibronectin synthesis, result in words [3, 5]: significant increase; Variation of Collagen IV synthesis (mean, in % of negative control) ([4]; 10 ppb): 12%
